Results on 2 molecules are retold here after patent US20170066759A1, “AROMATIC 5-MEMBERED HETEROCYCLIC DERIVATIVE HAVING TRPV4-INHIBITING ACTIVITY” (Shionogi & Co., Ltd., priority 2012, published 2017).

The term IC50 denotes the concentration that gives 50% inhibition.

In one data set the target is T1, CYP1A2 (Homo sapiens, UniProt P05177).
T1 construct: enzyme, pooled human hepatic microsome 0.2 mg protein/mL; from tissue; host or cells: pooled human liver microsomes
T1 sequence (P05177 1-516): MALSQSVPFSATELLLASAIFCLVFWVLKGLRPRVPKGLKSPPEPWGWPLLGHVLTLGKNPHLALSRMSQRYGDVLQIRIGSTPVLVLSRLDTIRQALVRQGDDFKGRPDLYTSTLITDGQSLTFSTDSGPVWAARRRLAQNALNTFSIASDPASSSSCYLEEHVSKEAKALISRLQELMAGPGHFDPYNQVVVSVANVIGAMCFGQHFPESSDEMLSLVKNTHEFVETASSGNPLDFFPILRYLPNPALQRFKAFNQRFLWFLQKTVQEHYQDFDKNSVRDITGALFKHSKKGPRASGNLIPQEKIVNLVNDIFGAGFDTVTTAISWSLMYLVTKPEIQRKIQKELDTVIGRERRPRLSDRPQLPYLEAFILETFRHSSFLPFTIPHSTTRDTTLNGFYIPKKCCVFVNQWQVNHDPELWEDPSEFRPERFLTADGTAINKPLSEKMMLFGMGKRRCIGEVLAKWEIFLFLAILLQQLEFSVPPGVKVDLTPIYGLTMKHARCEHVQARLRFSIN
The data set can be described thus: Test Example 6: CYP inhibition test, 7-ethoxyresorufin O-deethylation (CYP1A2). It counts as in vitro ADME. The note with it: pooled human hepatic microsome, 0.5 μmol/L ethoxyresorufin. The procedure:
(§1) Test Example 6 CYP Inhibition Test […] The reaction conditions were as follows: substrate, 0.5 μmol/L ethoxyresorufin (CYP1A2), 100 μmol/L tolbutamide (CYP2C9), 50 μmol/L S-mephenytoin (CYP2C19), 5 μmol/L dextromethorphan (CYP2D6), 1 μmol/L terfenedine (CYP3A4); reaction time, 15 minutes; reaction temperature, 37° C.; enzyme, pooled human hepatic microsome 0.2 mg protein/mL; concentration of the compound of the present invention, 1, 5, 10, 20 μmol/L (four points). Each five kinds of substrates, human hepatic microsome, and the compound of the present invention in 50 mmol/L Hepes buffer as a reaction solution were added to a 96-well plate at the composition as described above. NADPH, as a cofactor was added to initiate metabolism reactions as markers and, after the incubation at 37° C. for 15 minutes, a methanol/acetonitrile=1/1 (v/v) solution was added to stop the reaction. After the centrifugation at 3000 rpm for 15 minutes, resorufin (CYP1A2 metabolite) in the supernatant was quantified by a fluorescent multilabel counter and toltributamide hydroxide (CYP2[…] metabolite), mephenytoin 4' hydroxide (CYP2C19 metabolite), […], and terfenadine alcohol (CYP3A4 metabolite) were quantified by LC/MS/MS. Addition of only DMSO being a solvent dissolving the compound of the present invention to a reaction system was adopted as a control (100%). Remaining activity (%) was calculated at each concentration of the compound of the present invention added as the solution and IC50 was calculated by reverse presumption by a logistic model using a concentration and an inhibition rate.

In the next data set the target is T2, CYP2C19 (Homo sapiens, UniProt P33261).
T2 construct: enzyme, pooled human hepatic microsome 0.2 mg protein/mL; from tissue; host or cells: pooled human liver microsomes
As to the kind of experiment: Test Example 6: CYP inhibition test, mephenytoin 4′-hydroxylation (CYP2C19). The settings on record: pooled human hepatic microsome, 50 μmol/L S-mephenytoin. It counts as in vitro ADME. How it is done:
as §1

For data set [1], the system named is Salmonella typhimurium TA98 strain, TA100 strain. The data set can be described thus: Test Example 7: FAT test (mutagenicity). The settings on record: TA98 and TA100 strains, non-metabolism activating and metabolism activating conditions. Further details: key: (−) means that mutagenicity is negative; (+) is positive. The procedure:
Mutagenicity of a compound of the present invention was evaluated.
[…] of freezing-stored rat typhoid bacillus (Salmonella typhimurium TA98 strain, TA100 strain) was inoculated on 10 mL of a liquid nutrient medium (2.5% Oxoid nutrient broth No. 2), and this was cultured before shaking at 37° C. for 10 hours. 9 mL of a bacterial solution of the TA98 strain was centrifuged (2000×g, 10 minutes) to remove a culturing solution. The bacteria was suspended in 9 mL of a Micro F buffer (K2HPO4: 3.5 g/L, KH2PO4: 1 g/L, (NH4)2SO4: 1 g/L, trisodium citrate dehydrate: 0.25 g/L, MgSO4*7H2O: 0.1 g/L), the suspension was added to 110 mL of an Exposure medium (Micro F buffer containing Biotin: 8 μg/mL, histidine: 0.2 μg/mL, glucose: 8 mg/mL). The TA100 strain was added to 120 mL of the Exposure medium relative to 3.16 mL of the bacterial solution to prepare a test bacterial solution. […] Since a well containing a bacterium which has obtained the proliferation ability by mutation of an amino acid (histidine) synthesizing enzyme gene turns from purple to yellow due to a pH change, the bacterium proliferation well which has turned to yellow in 48 wells per dose was counted, and was assessed by comparing with a negative control group. […]

A value given as a limit tells only on which side of the number the result lay.

T2 sequence (P33261 whole entry): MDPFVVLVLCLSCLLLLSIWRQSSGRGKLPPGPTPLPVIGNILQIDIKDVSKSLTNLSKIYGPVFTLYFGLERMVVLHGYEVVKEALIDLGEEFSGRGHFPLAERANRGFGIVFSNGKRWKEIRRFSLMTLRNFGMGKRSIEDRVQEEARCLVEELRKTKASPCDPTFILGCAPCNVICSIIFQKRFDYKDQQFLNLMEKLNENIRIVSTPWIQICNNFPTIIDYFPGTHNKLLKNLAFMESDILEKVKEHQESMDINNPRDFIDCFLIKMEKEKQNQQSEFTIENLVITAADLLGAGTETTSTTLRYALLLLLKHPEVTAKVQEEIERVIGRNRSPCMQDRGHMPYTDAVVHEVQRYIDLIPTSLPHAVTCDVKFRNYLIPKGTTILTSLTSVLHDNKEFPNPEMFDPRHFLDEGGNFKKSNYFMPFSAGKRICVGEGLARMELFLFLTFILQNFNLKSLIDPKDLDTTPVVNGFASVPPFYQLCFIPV

For `Cc1nc(C)c(-c2csc(NC(=O)Cc3ccc(S(C)(=O)=O)cc3)n2)s1` [Compound I-17], the IC50 against CYP1A2 and against CYP2C19 was > 20 µM in each case.

For the molecule `Cc1nc(C)c(-c2csc(NC(=O)C3CCC(F)(F)C3)n2)s1` (stereo not drawn) [Compound I-18], in data set [1], the “Mutagenicity (FAT test)” value is on record as “(−)”.
